The values that follow come from patent publication US8063220B2, “Sulfonyl-quinoline derivatives” (Richter Gedeon Nyrt., priority 2007, dated 2011).

As usually defined, the Ki is the dissociation constant of the complex between target and ligand, obtained from inhibition or displacement.

One experiment has as its target T1, rat mGluR1 (Rattus norvegicus, UniProt P23385).
T1 construct: rat cerebellar membrane preparation was used; from tissue; host or cells: rat cerebellum (membrane preparation)
In words: MGluR1 receptor binding test ([3H]R214127 displacement, rat cerebellar membrane preparation). To be noted: rat mGluR1, [3H]R214127 3 nM; read-out: mGlu1 Ki. The method, then: MGluR1 receptor binding tests were performed according to modified method of Lavreysen et al. (Mol. Pharm., 2003, 63, 1082). Based on the high homology between the human and rat mGluR1 receptors, rat cerebellar membrane preparation was used to determine the binding characteristics of reference compounds and novel compounds to the rat mGluR1. [3H]R214127 (3 nM) was used as radioligand and the nonspecific binding was determined in the presence of 1 μM of R214127.
IC-50 values were determined from displacement curves by nonlinear regression analysis and were converted to Ki values using the equation method of Cheng and Prusoff (Biochem. Pharmacol., 1973, 22, 3099).

The next experiment addresses T2, rat mGluR5 (Rattus norvegicus, UniProt P31424).
T2 construct: Rat cerebro-cortical membrane preparation was used; from tissue; host or cells: rat cerebral cortex (membrane preparation)
In words: MGluR5 receptor binding test ([3H]-M-MPEP displacement, rat cerebro-cortical membrane preparation). To be noted: rat mGluR5, [3H]-M-MPEP 2 nM; read-out: mGlu5 Ki. The procedure:
Rat cerebro-cortical membrane preparation was used to determine the binding characteristics of reference compounds and novel compounds to the rat mGluR5. The A18 cell line expressing hmGluR5a (purchased from Euroscreen) was used to determine binding characteristics of the chemical compounds to the human mGluR5a receptor. [3H]-M-MPEP (2 nM) was used as radioligand. The nonspecific binding was determined in the presence of 10 μM M-MPEP.

T2 sequence (P31424 21-1203): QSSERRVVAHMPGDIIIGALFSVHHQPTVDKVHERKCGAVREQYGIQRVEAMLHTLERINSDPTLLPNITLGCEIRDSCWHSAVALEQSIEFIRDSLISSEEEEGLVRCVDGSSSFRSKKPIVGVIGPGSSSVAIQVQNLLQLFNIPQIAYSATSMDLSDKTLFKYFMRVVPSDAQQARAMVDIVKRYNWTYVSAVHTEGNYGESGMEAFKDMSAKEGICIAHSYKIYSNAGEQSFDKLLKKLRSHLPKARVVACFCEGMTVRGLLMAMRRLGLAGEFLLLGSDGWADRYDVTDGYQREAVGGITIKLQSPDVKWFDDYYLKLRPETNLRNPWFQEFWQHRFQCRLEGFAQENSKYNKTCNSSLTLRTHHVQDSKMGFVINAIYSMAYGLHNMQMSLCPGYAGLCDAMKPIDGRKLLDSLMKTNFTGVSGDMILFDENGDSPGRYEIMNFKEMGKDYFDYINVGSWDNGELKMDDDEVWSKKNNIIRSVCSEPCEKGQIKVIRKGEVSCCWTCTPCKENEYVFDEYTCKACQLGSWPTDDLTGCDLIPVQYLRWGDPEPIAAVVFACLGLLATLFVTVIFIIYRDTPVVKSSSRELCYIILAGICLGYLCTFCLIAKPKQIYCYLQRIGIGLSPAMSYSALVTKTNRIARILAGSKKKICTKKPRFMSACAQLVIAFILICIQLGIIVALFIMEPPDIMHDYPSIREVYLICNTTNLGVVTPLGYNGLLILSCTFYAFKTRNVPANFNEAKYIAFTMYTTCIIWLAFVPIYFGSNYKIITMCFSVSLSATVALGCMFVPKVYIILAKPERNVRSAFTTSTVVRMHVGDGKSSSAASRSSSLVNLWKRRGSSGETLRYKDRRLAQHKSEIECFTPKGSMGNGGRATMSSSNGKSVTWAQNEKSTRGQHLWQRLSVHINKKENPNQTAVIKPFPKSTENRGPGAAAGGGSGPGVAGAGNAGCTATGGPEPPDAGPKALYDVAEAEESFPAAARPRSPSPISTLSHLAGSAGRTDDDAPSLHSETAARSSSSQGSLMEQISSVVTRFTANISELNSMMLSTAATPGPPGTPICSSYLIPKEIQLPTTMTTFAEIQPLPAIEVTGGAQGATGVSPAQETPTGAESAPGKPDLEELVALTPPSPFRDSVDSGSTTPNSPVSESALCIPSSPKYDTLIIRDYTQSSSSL
T1 sequence (P23385 19-1199): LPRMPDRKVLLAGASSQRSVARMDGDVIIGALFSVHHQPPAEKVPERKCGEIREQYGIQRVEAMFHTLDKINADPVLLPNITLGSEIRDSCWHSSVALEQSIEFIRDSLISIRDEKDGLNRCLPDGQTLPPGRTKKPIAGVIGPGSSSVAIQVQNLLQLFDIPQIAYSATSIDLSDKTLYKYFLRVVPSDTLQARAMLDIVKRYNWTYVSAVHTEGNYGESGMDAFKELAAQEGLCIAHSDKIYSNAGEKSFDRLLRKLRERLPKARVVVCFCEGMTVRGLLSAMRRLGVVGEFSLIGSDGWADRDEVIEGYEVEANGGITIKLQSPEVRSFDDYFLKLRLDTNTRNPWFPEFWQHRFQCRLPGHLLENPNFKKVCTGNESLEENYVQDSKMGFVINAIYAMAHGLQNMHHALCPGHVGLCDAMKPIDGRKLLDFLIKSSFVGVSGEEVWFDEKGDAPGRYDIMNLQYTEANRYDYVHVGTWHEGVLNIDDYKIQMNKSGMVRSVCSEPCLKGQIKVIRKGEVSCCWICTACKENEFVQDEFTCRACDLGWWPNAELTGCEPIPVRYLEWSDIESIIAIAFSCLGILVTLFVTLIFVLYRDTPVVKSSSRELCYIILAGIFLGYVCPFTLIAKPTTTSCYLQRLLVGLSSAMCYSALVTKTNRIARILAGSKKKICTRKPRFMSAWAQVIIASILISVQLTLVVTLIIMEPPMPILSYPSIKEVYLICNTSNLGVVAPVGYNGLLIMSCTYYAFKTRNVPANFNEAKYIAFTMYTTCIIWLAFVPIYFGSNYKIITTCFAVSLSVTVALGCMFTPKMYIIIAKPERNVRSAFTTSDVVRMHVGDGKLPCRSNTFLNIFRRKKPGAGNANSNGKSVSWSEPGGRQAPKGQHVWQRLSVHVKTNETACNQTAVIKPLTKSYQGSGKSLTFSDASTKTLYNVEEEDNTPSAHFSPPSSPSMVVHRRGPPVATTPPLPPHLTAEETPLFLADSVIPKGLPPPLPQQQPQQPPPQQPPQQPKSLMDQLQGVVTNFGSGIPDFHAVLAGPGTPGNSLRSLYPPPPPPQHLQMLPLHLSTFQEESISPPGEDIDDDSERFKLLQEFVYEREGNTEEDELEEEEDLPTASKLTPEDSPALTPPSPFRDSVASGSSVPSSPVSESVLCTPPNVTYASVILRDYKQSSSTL

`Cc1ccc(S(=O)(=O)c2cnc3ccccc3c2-c2ccc(Cl)cc2)cc1` [Compound 1, 4-(4-chloro-phenyl)-3-(4-methyl-benzenesulfonyl)-quinoline]: the figures for the Ki at rat mGluR1 and on rat mGluR5 were 200 to 500 nM and < 200 nM, respectively.
Taken in the same sequence, the figures for `O=S(=O)(c1ccc(F)cc1)c1cnc2ccc(Cl)cc2c1-c1ccc(Cl)cc1` [Compound 2] were > 500 nM and > 500 nM.
`O=S(=O)(c1ccc(F)cc1)c1cnc2ccc(Cl)cc2c1-c1cccc(Cl)c1` [Compound 3]: the Ki on rat mGluR1 and at rat mGluR5 was > 500 nM throughout.
As to `O=S(=O)(c1ccc(Cl)cc1)c1cnc2cc(Cl)ccc2c1-c1ccc(F)cc1` [Compound 4, 7-chloro-3-(4-chloro-benzenesulfonyl)-4-(4-fluoro-phenyl)-quinoline], the inhibitory constant (Ki) was 200 to 500 nM at rat mGluR1 and < 200 nM at rat mGluR5.
Consider `O=S(=O)(c1ccc(Cl)cc1)c1cnc2c(Cl)cccc2c1-c1ccc(Cl)cc1` [Compound 5], for which the results for the inhibition constant (Ki) at rat mGluR1 and on rat mGluR5 were > 500 nM and 200 to 500 nM, respectively.
On the same counts, the results for `O=S(=O)(c1ccc(Cl)cc1)c1cnc2c(Cl)cccc2c1-c1cccc(Cl)c1` [Compound 6] are > 500 nM and 200 to 500 nM.
Regarding `O=S(=O)(c1ccc(Cl)c(Cl)c1)c1cnc2c(Cl)cccc2c1-c1cccc(Cl)c1` [Compound 7], the inhibitory constant (Ki) on rat mGluR1 and on rat mGluR5 was < 200 nM throughout.
In the case of `O=S(=O)(c1ccc(Cl)cc1)c1cnc2ccc(F)cc2c1-c1cccc(Cl)c1` [Compound 8], the Ki at rat mGluR1 and at rat mGluR5 was > 500 nM in each case.
With `O=S(=O)(c1ccc(F)cc1)c1cnc2cc(F)ccc2c1-c1cccc(F)c1` [Compound 9, 7-fluoro-3-(4-fluoro-benzenesulfonyl)-4-(3-fluoro-phenyl)-quinoline], the inhibition constant Ki at rat mGluR1 is 200 to 500 nM; on rat mGluR5 it was < 200 nM.
Taken in the same sequence, the figures for `COc1ccc(-c2c(S(=O)(=O)c3ccc(F)cc3)cnc3cc(F)ccc23)cc1` [Compound 10] were > 500 nM and 200 to 500 nM.
Taken in the same sequence, the figures for `COc1ccc(S(=O)(=O)c2cnc3cc(F)ccc3c2-c2ccc(Cl)cc2)cc1` [Compound 11] were > 500 nM and < 200 nM.
On the same counts, the results for `COc1ccc(S(=O)(=O)c2cnc3cc(F)ccc3c2-c2cccc(F)c2)cc1` [Compound 12] are > 500 nM and 200 to 500 nM.
With `COc1ccc(-c2c(S(=O)(=O)c3ccc(OC)cc3)cnc3cc(F)ccc23)cc1` [Compound 13], the figures for the inhibition constant (Ki) at rat mGluR1 and on rat mGluR5 were > 500 nM and < 200 nM, respectively.
For `COc1ccc(S(=O)(=O)c2cnc3cc(F)ccc3c2-c2ccc(F)cc2)cc1` [Compound 14], the values for the Ki at rat mGluR1 and on rat mGluR5 were > 500 nM and 200 to 500 nM, respectively.
Consider `O=S(=O)(c1cccc(F)c1)c1cnc2cc(F)ccc2c1-c1cccc(F)c1` [Compound 15], for which the Ki was 200 to 500 nM at rat mGluR1 and < 200 nM at rat mGluR5.
Take `O=S(=O)(c1cccc(F)c1)c1cnc2cc(F)ccc2c1-c1ccc(F)cc1` [Compound 16]: the Ki is > 500 nM on rat mGluR1 and < 200 nM at rat mGluR5.
For `Cc1ccc(S(=O)(=O)c2cnc3cc(F)ccc3c2-c2cccc(Cl)c2)cc1C` [Compound 17, 4-(3-chloro-phenyl)-3-(3,4-dimethyl-benzenesulfonyl)-7-fluoro-quinoline], the inhibition constant (Ki) at rat mGluR1 was > 500 nM; at rat mGluR5, < 200 nM.
On the same counts, the results for `Cc1ccc(S(=O)(=O)c2cnc3cc(F)ccc3c2-c2cccc(F)c2)cc1C` [Compound 18] are > 500 nM and < 200 nM.
On the same counts, the results for `COc1cccc(-c2c(S(=O)(=O)c3ccc(C)c(C)c3)cnc3cc(F)ccc23)c1` [Compound 19] are > 500 nM and < 200 nM.
On the same counts, the results for `O=S(=O)(c1ccc(F)cc1)c1cnc2c(F)cccc2c1-c1cccc(Cl)c1` [Compound 20] are < 200 nM and < 200 nM.
Consider `O=S(=O)(c1ccc(F)cc1)c1cnc2c(F)cccc2c1-c1ccc(Cl)cc1` [Compound 21], for which the Ki on rat mGluR1 is 200 to 500 nM; on rat mGluR5, < 200 nM.
With `O=S(=O)(c1ccc(F)cc1)c1cnc2c(F)cccc2c1-c1cccc(F)c1` [Compound 22], the inhibitory constant (Ki) on rat mGluR1 is 200 to 500 nM; on rat mGluR5, < 200 nM.
Turning to `COc1cccc(-c2c(S(=O)(=O)c3ccc(F)cc3)cnc3c(F)cccc23)c1` [Compound 23], the Ki was > 500 nM at rat mGluR1 and < 200 nM at rat mGluR5.
For the molecule `O=S(=O)(c1ccc(F)cc1)c1cnc2ccc(F)cc2c1-c1cccc(Cl)c1` [Compound 24], the Ki at rat mGluR1 and at rat mGluR5 was > 500 nM in each case.
As to `O=S(=O)(c1ccc(F)cc1)c1cnc2ccc(F)cc2c1-c1ccc(Cl)cc1` [Compound 25], the Ki on rat mGluR1 was > 500 nM; at rat mGluR5 it was 200 to 500 nM.
On the same counts, the results for `O=S(=O)(c1ccc(F)cc1)c1cnc2ccc(F)cc2c1-c1cccc(F)c1` [Compound 26] are > 500 nM and 200 to 500 nM.
On the same counts, the results for `COc1ccc(-c2c(S(=O)(=O)c3ccc(F)cc3)cnc3ccc(F)cc23)cc1` [Compound 27] are > 500 nM and > 500 nM.
For `O=S(=O)(c1ccc(F)cc1)c1cnc2ccc(F)cc2c1-c1ccc(F)cc1` [Compound 28], the Ki on rat mGluR1 and on rat mGluR5 was > 500 nM throughout.
On to `COc1ccc(S(=O)(=O)c2cnc3ccc(F)cc3c2-c2ccc(Cl)cc2)cc1` [Compound 29], for which the Ki at rat mGluR1 is > 500 nM; at rat mGluR5, < 200 nM.
On the same counts, the results for `COc1ccc(S(=O)(=O)c2cnc3ccc(F)cc3c2-c2cccc(F)c2)cc1` [Compound 30] are > 500 nM and 200 to 500 nM.
Taken in the same sequence, the figures for `O=S(=O)(c1ccc(Cl)cc1)c1cnc2ccc(F)cc2c1-c1ccc(F)cc1` [Compound 31] were > 500 nM and > 500 nM.
For `O=S(=O)(c1cccc(F)c1)c1cnc2ccc(F)cc2c1-c1ccc(Cl)cc1` [Compound 32], the inhibition constant Ki on rat mGluR1 and at rat mGluR5 was > 500 nM in each case.
As to `Cc1ccc(S(=O)(=O)c2cnc3ccc(F)cc3c2-c2ccc(Cl)cc2)cc1C` [Compound 33], the Ki on rat mGluR1 is > 500 nM; at rat mGluR5, < 200 nM.
Consider `COc1cccc(-c2c(S(=O)(=O)c3cccc(Cl)c3)cnc3ccc(F)cc23)c1` [Compound 34], for which the inhibitory constant (Ki) on rat mGluR1 and on rat mGluR5 was > 500 nM in each case.
Regarding `O=S(=O)(c1cc(F)cc(F)c1)c1cnc2cc(F)ccc2c1-c1ccc(Cl)cc1` [Compound 35, 4-(4-chloro-phenyl)-3-(3,5-difluoro-benzenesulfonyl)-7-fluoro-quinoline], the figures for the inhibition constant Ki at rat mGluR1 and on rat mGluR5 were > 500 nM and < 200 nM, respectively.
On the same counts, the results for `O=S(=O)(c1cc(F)cc(F)c1)c1cnc2cc(F)ccc2c1-c1ccc(F)cc1` [Compound 36] are > 500 nM and < 200 nM.
Taken in the same sequence, the figures for `N#Cc1cccc(S(=O)(=O)c2cnc3cc(F)ccc3c2-c2ccc(Cl)cc2)c1` [Compound 37] were 200 to 500 nM and < 200 nM.
Taken in the same sequence, the figures for `N#Cc1cccc(S(=O)(=O)c2cnc3cc(F)ccc3c2-c2cccc(F)c2)c1` [Compound 38] were 200 to 500 nM and < 200 nM.
Regarding `N#Cc1cccc(S(=O)(=O)c2cnc3cc(F)ccc3c2-c2ccc(F)cc2)c1` [Compound 39], the values for the inhibitory constant (Ki) at rat mGluR1 and at rat mGluR5 were 200 to 500 nM and < 200 nM, respectively.
Consider `O=S(=O)(c1ccc(F)cc1)c1cnc2cc(F)ccc2c1-c1ccc(F)cc1` [Compound 40], for which the results for the Ki on rat mGluR1 and on rat mGluR5 were > 500 nM and < 200 nM, respectively.
Turning to `O=S(=O)(c1cccc(F)c1)c1cnc2cc(F)ccc2c1-c1ccc(Cl)cc1` [Compound 41], the inhibition constant Ki at rat mGluR1 was > 500 nM; at rat mGluR5 it was < 200 nM.
Taken in the same sequence, the figures for `COc1ccc(-c2c(S(=O)(=O)c3cccc(F)c3)cnc3cc(F)ccc23)cc1` [Compound 42] were > 500 nM and 200 to 500 nM.
On the same counts, the results for `COc1cccc(S(=O)(=O)c2cnc3cc(F)ccc3c2-c2cccc(Cl)c2)c1` [Compound 43] are > 500 nM and < 200 nM.
On to `COc1cccc(S(=O)(=O)c2cnc3cc(F)ccc3c2-c2ccc(F)cc2)c1` [Compound 44], for which the inhibitory constant (Ki) on rat mGluR1 is > 500 nM; at rat mGluR5, < 200 nM.
On the same counts, the results for `Cc1ccc(S(=O)(=O)c2cnc3cc(F)ccc3c2-c2ccc(Cl)cc2)cc1C` [Compound 45] are > 500 nM and < 200 nM.
For the molecule `Cc1ccc(S(=O)(=O)c2cnc3cc(F)ccc3c2-c2ccc(F)cc2)cc1C` [Compound 46], the values for the inhibitory constant (Ki) at rat mGluR1 and on rat mGluR5 were > 500 nM and < 200 nM, respectively.
Taken in the same sequence, the figures for `COc1ccc(S(=O)(=O)c2cnc3cc(F)ccc3c2-c2cccc(Cl)c2)cc1Cl` [Compound 47] were 200 to 500 nM and < 200 nM.
On to `COc1ccc(S(=O)(=O)c2cnc3cc(F)ccc3c2-c2cccc(F)c2)cc1Cl` [Compound 48], for which the Ki was > 500 nM on rat mGluR1 and < 200 nM on rat mGluR5.
In the case of `COc1ccc(S(=O)(=O)c2cnc3cc(F)ccc3c2-c2ccc(F)cc2)cc1Cl` [Compound 49], the inhibitory constant (Ki) on rat mGluR1 was > 500 nM; at rat mGluR5, < 200 nM.
Consider `O=S(=O)(c1cc(Cl)cc(Cl)c1)c1cnc2c(F)cccc2c1-c1ccc(F)cc1` [Compound 50], for which the Ki on rat mGluR1 and on rat mGluR5 was < 200 nM each time.
For the molecule `O=S(=O)(c1cc(Cl)cc(Cl)c1)c1cnc2cc(F)ccc2c1-c1ccc(F)cc1` [Compound 83], at rat mGluR1, the Ki lay in the range of 200 to 500 nM.
